What was measured:
SHP/Rgg1358 system = test: Maximum luciferase activity of strain TIL1566 with different synthetic SHPs; assay type: cell-based, S. thermophilus; conditions: strain TIL1566 in CDM, 37° C., synthetic peptide 1 μM; mean of three independent experiments
Description: For the assessment of the maximum luciferase activity reached with the addition of different SHPs in the culture media of strain TIL1566 (blp::rgg1358-Pster1357-luxAB-aphA3 ΔpptAB::erm), cells were grown overday at 37° C. in CDM. These cultures were diluted to a final OD600 of 0.05 in 1 ml of CDM. Synthetic SHP peptides were added in the culture medium at a final concentration of 1 μM. 250 μl of these diluted cultures were transferred to the wells of a covered sterile white microplate with a transparent bottom. The cultures' OD600 and luminescence values were monitored at 37° C. every 10 minutes in an Infinite M200 spectroluminometer, as previously described (Fontaine et al., J. Bacteriol. 192:1444-1454, 2010). The maximum of luminescence was recovered from each kinetic. The maximum activity was reported in Relative Luminescent Units divided by the OD600 (RLU/OD600) and measured as the mean of three independent experiments.
In order to assess their efficiency, we used their synthetic mature form to record the maximum luciferase activity of strain TIL1566 (blp::rgg1358-Pster1357-luxAB ΔpptAB::erm) in CDM and compared it to the one obtained with SHP1358. We chose the mature SHPs of strain CNRZ1066 similar to the mature SHP1358 (EGIIVIVVG, SEQ ID NO: 24): the SHP associated to Rgg STR_RS07375 (EGIIVILVG, SEQ ID NO: 25), the SHP associated to Rgg STR_RS09145 (EGIIVIGVG, SEQ ID NO: 26) and the SHP associated to Rgg STR_RS04530 (ESIIVIAVG, SEQ ID NO: 27). The most efficient peptide was ESIIVIAVG (SEQ ID NO: 27) with a maximum relative luciferase activity that reached 95% of the one obtained with SHP1358. The two other peptides were less efficient with percentage of 86% with EGIIVILVG (SEQ ID NO: 25) and only 27% with EGIIVIGVG (SEQ ID NO: 26).

elafin = test: Western blot detection of secreted elafin in culture supernatants; assay type: cell-based, human
Excerpt: FIG. 3. Production of elafin detected by Western blot in the supernatant of different S. thermophilus strains. (A) At OD600 0.2 and 0.5 for strain TIL1536 (ΔhtrA::aphA3 ΔsepM::spec), TIL1551 (blp::shp-rgg1358-Pster1357-elafin-P32 cm ΔhtrA::aphA3 ΔywdF::spec) and TIL1552 (blp::rgg1358-Pster1357-elafin-P32 cm ΔhtrA::aphA3 ΔywdF::spec). (B) At OD600 1 and 2 for strain TIL1536, TIL1551 and TIL1552. (C) At OD600 0.2, 0.5 and 1 for strain TIL1567 (blp::rgg1358-Pster1357-luxAB-aphA3 ΔhtrA::aphA3 ΔywdF::spec ΔpptAB::erm). Purified elafin was used as a positive control and strain TIL1536 as negative control (elafin non-producing strain). Induction of the production of elafin with the addition of synthetic SHP in the culture medium is mentioned with: +SHP.
For the preparation of the samples, derivatives of strain CNRZ1066 were grown in CDM at 42° C. When necessary, induction was performed with the addition of SHP peptide (EGIIVIVVG, SEQ ID NO: 24) at a final concentration of 1 μM for strain TIL1552 and 0.5 µM for strain TIL1567 in the growth medium at OD600 of 0.2. When the cultures reached the desired OD600, 10 ml were centrifuged at 3200 g for 10 min at room temperature. […]
For the Western blot experiments, 10 μl of the samples were diluted in Laemmli Buffer (4×) and heated to 95° C. for 5 minutes. […] Detection was finally recorded using a Chemidoc (Biorad).

Sequence | maximum relative luciferase activity, percentage of the one obtained with SHP1358 (SHP/Rgg1358 system) [%] | elafin level in induced culture versus uninduced culture (elafin; strain 1552, SHP 1 μM added at OD600 0.2, sampled at OD600 0.5) | production of elafin in the extracellular medium on addition of SHP (elafin; strain TIL1567 (ΔpptAB), SHP 0.5 μM added at OD600 0.2, detected at OD600 0.5 and 1)
EGIIVIGVG (listed as Streptococcus thermophilus) | 27 | – | –
EGIIVILVG (listed as Streptococcus thermophilus) | 86 | – | –
EGIIVIVVG (listed as Streptococcus thermophilus) [SHP1358, mature small hydrophobic peptide of S. thermophilus LMD-9, inducer of Rgg1358] | – | much greater | restored
ESIIVIAVG (listed as Streptococcus thermophilus) | 95 | – | –
